This note sets out measurements from patent US20220146526A1, “METHOD FOR EVALUATING SAMPLE, ANALYSIS METHOD, METHOD FOR DETECTING DEGRADED SAMPLE, MARKER FOR DETECTING DEGRADED BLOOD PLASMA SAMPLE, AND MARKER FOR DETECTING DEGRADED SERUM SAMPLE” (SHIMADZU CORPORATION, priority 2019, published 2022).

Holding throughout (type): physicochemical, human
Data set [1] in a line: LC/MS of blood plasma sample: time from blood collection to centrifugation (Table D). Conditions: for Rate of increase or decrease: detection intensity relative to 1 at 15 minutes; for Rate of increase or decrease / Increase or decrease: blood collection to centrifugation; for Increase or decrease: detection intensity. In outline:
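Detection intensities are expressed relative to samples centrifuged 15 min after collection (=1), measured by electrospray LC/MS in MRM mode (Discovery HS F5-3, 40 °C, formic acid water/acetonitrile gradient at 0.25 mL/min). EDTA blood from a healthy donor was held at 4 °C, centrifuged at 4 °C, 3000 rpm, 15 min, and plasma frozen.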

A short description of data set [2]: LC/MS of blood plasma sample: number of times of freezing and thawing (Table F). Particulars: for Rate of increase or decrease: detection intensity relative to 1 at 2 times; for Increase or decrease: detection intensity. The procedure, abridged:
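Values are detection intensities normalised to 1 for plasma thawed twice, compared against 4, 6 and 10 freeze-thaw cycles. Measured by electrospray LC/MS in MRM mode, formic acid water/acetonitrile mobile phase, column at 40° C. Plasma came from EDTA blood, cooled to 4° C and spun at 3000 rpm for 15 min.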

The nature of data set [3]: LC/MS of serum sample: time from blood collection to centrifugation (Table J). Particulars: for Rate of increase or decrease: detection intensity relative to 1 at 15 minutes; for Increase or decrease / Time when compound is affected: serum sample, LC/MS; for Increase or decrease: detection intensity vs 15 minutes from blood collection to centrifugation; for Time when compound is affected: time from blood collection to centrifugation, detection intensity changed by 30% or more vs 15 minutes. The procedure, abridged:
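Detection intensities are expressed relative to 1 for samples centrifuged 15 min after blood collection; centrifugation was at room temperature, 3500 rpm, 5 min. Frozen serum was run by electrospray LC-MS in MRM mode, with 0.1% formic acid water/acetonitrile at 0.25 mL/min on a 40 °C F5 column.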

Data set [4] in a line: LC/MS of serum sample: time from centrifugation to isolation (Table K). The arrangement: key to Rate of increase or decrease: detection intensity relative to the 30-minute value set as 1. Conditions: for Increase or decrease / Time when compound is affected: serum sample, LC/MS; for Increase or decrease: detection intensity vs 30 minutes from centrifugation to isolation; for Time when compound is affected: time from centrifugation to isolation, detection intensity changed by 30% or more vs 30 minutes; for Rate of increase or decrease: after 1 hour from centrifugation to isolation, detection intensity relative to 1 at 30 minutes. How it is done: After standing, the blood sample was subjected to centrifugation under a condition of room temperature, 3500 rpm, and 5 minutes. […] After centrifugation, the blood-collecting vessel was left to stand at room temperature, and the serum was isolated during this time. Here, in order to investigate how the detection intensity of molecules contained in the sample was affected in cases where the time during which the blood-collecting vessel was left at room temperature was set to 1 hour and 6 hours as compared to that in a case where the time was set to 30 minutes, preparations were performed under the respective conditions of 30 minutes, 1 hour, and 6 hours. The obtained serum sample was frozen and stored. Here, in order to investigate how the detection intensity of molecules contained in the sample was affected in cases where freezing and thawing was performed 4 times, 6 times, and 10 times after freezing as compared to that in a case where freezing and thawing was performed 2 times after freezing, freezing and thawing was performed under the respective conditions of 2, 4, 6, and 10 times.
(§1) Frozen blood plasma samples and serum samples were subjected to GC/MS or LC/MS. In GC/MS, the blood plasma samples and serum samples were subjected to methoxymation and trimethylsilylation and then introduced to GC-MS.
(§2) Analysis column: Discovery HS F5-3 (inner diameter of 2.1 mm, length of 150 mm, film thickness of 3 μm) (Sigma-Aldrich)
(§3) Column temperature: 40° C.
(§4) (A) 0.1% formic acid (dissolved in water)
(§5) (B) 0.1% formic acid (dissolved in acetonitrile)
(§6) Flow velocity: 0.25 mL/min
(§7) Ionization method: electrospray
(§8) Temperature: • Desolvation Line (DL) temperature: 250° C. • Heat block temperature: 400° C. • Interface temperature: 300° C.
(§9) Gas flow rate: • Nebulizer gas flow rate: 3.0 L/min • Drying gas flow rate: 10.0 L/min • Heating gas flow rate: 10.0 L/min
(§10) Mode: multiple reaction monitoring (MRM)
The rate of increase or decrease in Table K is the value of detection intensity relative to 1 that is the detection intensity in a case where the time from centrifugation to isolation is set to 30 minutes.

Data set [5] is described as follows: LC/MS of serum sample: number of times of freezing and thawing (Table M). Particulars: for Number of times when compound is affected / Increase or decrease: serum sample, LC/MS; for Number of times when compound is affected: detection intensity changed by 30% or more vs 2 times of freezing and thawing; for Increase or decrease: detection intensity vs 2 times of freezing and thawing. Also on record: key to Rate of increase or decrease: detection intensity relative to 1 at 2 freeze-thaw cycles. In outline: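 Values are detection intensities relative to serum thawed twice, versus 4, 6 or 10 freeze-thaw cycles. Serum came from blood spun at room temperature, 3500 rpm for 5 minutes. Analysis: electrospray LC/MS in MRM mode, Discovery HS F5-3 column, 40° C, 0.1% formic acid in water and acetonitrile.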

A short description of data set [6]: LC/MS of blood plasma sample: time from blood collection to cooling of blood (Table E). The arrangement: key to Rate of increase or decrease / Rate of increase or decrease (first value, increase): detection intensity relative to ≤1 min to cooling = 1. Conditions: for Rate of increase or decrease: detection intensity relative to 1 at 1 minute or less, blood collection to cooling 5 minutes; for Increase or decrease: detection intensity, blood collection to cooling 5 minutes or more vs 1 minute or less. How it is done:
At room temperature, 5 mL of blood from a healthy subject was taken into a blood-collecting vessel containing EDTA, and the blood-collecting vessel was inverted for mixing, then cooled, and allowed to stand at 4° C. Here, in order to investigate how the detection intensity of molecules contained in the sample was affected in a case where the time to cooling was set to 5 minutes or more as compared to that in a case where the time to cooling was set to 1 minute or less, preparations were performed under both the former condition and the latter condition. After standing, the blood sample was subjected to centrifugation under a condition of 4° C., 3000 rpm, and 15 minutes. […] After centrifugation, the blood-collecting vessel was left to stand at room temperature for 30 minutes, and the blood plasma was isolated during this 30 minutes. The obtained blood plasma sample was frozen and stored. Here, in order to investigate how the detection intensity of molecules contained in the sample was affected in cases where freezing and thawing was performed 4 times, 6 times, and 10 times after freezing as compared to that in a case where freezing and thawing was performed 2 times after freezing, freezing and thawing was performed under the respective conditions of 2, 4, 6, and 10 times.
as §1, §2, §3, §4, §5, §6, §7, §8, §9, §10
The rate of increase or decrease in Table E is the value of detection intensity relative to 1 that is the detection intensity in a case where the time from blood collection to cooling is set to 1 minute or less.

Data set [7] can be described thus: GC/MS of serum sample: time from blood collection to centrifugation (Table G). Particulars: blood collection to centrifugation. In outline: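 Values express detection intensity as a ratio to the sample centrifuged 15 minutes after blood collection (taken as 1). Serum was derivatized by methoxymation and trimethylsilylation, then analysed by electron-ionization GC/MS using multiple reaction monitoring on a BPX5 column ramped from 60 to 330° C.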

Data set [8] can be described thus: GC/MS of serum sample: time from centrifugation to isolation (Table H). The procedure, abridged: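 Values are GC/MS (EI, MRM) detection intensities of methoxymated/trimethylsilylated serum, normalised to 1 for the 30-min sample. Serum was isolated 30 min, 1 h or 6 h after room-temperature centrifugation (3500 rpm, 5 min) of blood.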
A short description of data set [9]: GC/MS of serum sample: number of times of freezing and thawing (Table I). Particulars: serum, GC/MS. In outline:
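Detection intensities are ratios to the value after two freeze–thaw cycles, which is set as 1, compared against 4, 6 and 10 cycles. Analysis used methoxymation and trimethylsilylation derivatization, then GC/MS with EI ionization and multiple reaction monitoring on a BPX5 column. Serum came from blood held at room temperature and spun at 3500 rpm for 5 min.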

Data set [10] is described as follows: GC/MS of blood plasma sample: time from blood collection to centrifugation (Table A). Conditions: blood collection to centrifugation. In outline:
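Read-out is MRM detection intensity by electron-ionization GC/MS on a BPX5 column after methoxymation and trimethylsilylation, expressed relative to a 15-minute collection-to-centrifugation interval. Plasma was prepared from EDTA blood held at 4° C and spun at 4° C, 3000 rpm for 15 minutes, then frozen.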

The mark [11] stands for this setting: freezing and thawing 4 times vs 2 times.
Where [12] appears, read: 6 times of freezing and thawing, detection intensity relative to 1 at 2 times.
Setting [13] is: after 4 hours from blood collection to centrifugation.

For the compound `N=C(N)NCCC[C@H](NC(CC(=O)O)C(=O)O)C(=O)O` (some centres unmarked) [Argininosuccinic acid], the “Rate of increase or decrease” value in [1] (after 12 hours) worked out at 0.61; in data set [2] (freezing and thawing 4 times), 2.01; in [3] (after 6 hours from blood collection to centrifugation), 0.65; in data set [5] (6 times of freezing and thawing, relative to 1 at 2 times, different from individual to individual, first value (increase)), 1.38; in [5] (6 times of freezing and thawing, relative to 1 at 2 times, different from individual to individual, second value (decrease)) it was 0.49. For the same compound, the Increase or decrease entry in data set [1] (after 12 hours vs 15 minutes) was “Decrease”; in [2] (setting [11]), “Increase”; in data set [3], “Decrease”; in data set [4], “Increase”; in data set [5], “Different from individual”. In addition, the entries for the “Time when compound is affected” value in [3] and in data set [4] were “After 6 hours” and “After 1 hour hours”, respectively. Further, in data set [5], the “Number of times when compound is affected” value (“Number of times” below) came to 6 times.
For the compound `CN(C)C(N)=NCCC[C@H](N)C(=O)O` [Asymmetric dimethylarginine], the figures for the Increase or decrease entry in data set [1] (after 12 hours vs 15 minutes), in data set [6] and in data set [5] were “Different from individual”, “Increase” and “Decrease”, respectively. Moreover, the “Rate of increase or decrease (second value, decrease)” value in data set [1] (different from individual to individual, individuals with decrease, relative to 1 at 15 minutes, collection to centrifugation, after 12 hours) turned out to be 0.66. In data set [1] (different from individual to individual, individuals with increase, relative to 1 at 15 minutes, collection to centrifugation, after 12 hours), the “Rate of increase or decrease (first value, increase)” value turned out to be 1.78. Further, the “Rate of increase or decrease” value was 1.31 in data set [6] and 0.69 in [5] (setting [12]). The “Number of times” value in [5] was 6 times.
Regarding `NCCc1ccc(O)c(O)c1` [Dopamine], the “Rate of increase or decrease” value is 0.53 in data set [1] (after 6 hours); 1.43 in data set [6]; 1.50 in [7] (detection intensity relative to 1 at 15 minutes, after 4 hours); 0.64 in data set [8] (detection intensity relative to 1 at 30 minutes, after 1 hour); 0.53 in data set [9] (detection intensity relative to 1 at 2 times, freezing and thawing 4 times); 1.39 in [3] (after 12 hours from blood collection to centrifugation). In addition, the Increase or decrease result in data set [1] (after 6 hours vs 15 minutes) is “Decrease”; in data set [6], “Increase”; in data set [7] (detection intensity, after 4 hours vs 15 minutes), “Increase”; in [8] (detection intensity, after 1 hour vs 30 minutes), “Decrease”; in data set [9] (detection intensity, freezing and thawing 4 times vs 2 times), “Decrease”; in data set [3], “Increase”. In addition, the “Time when compound is affected” value in data set [3] was “After 12 hours”.
As for `Nc1nc2c(ncn2[C@@H]2O[C@H](CO)[C@@H](O)[C@H]2O)c(=O)[nH]1` [Guanosine], the “Rate of increase or decrease” value was found to be 1.57 in [1] (after 6 hours); 0.58 in [2] (freezing and thawing 6 times); 0.08 in data set [3] (setting [13]); 0.57 in data set [4]; 0.62 in data set [5] (setting [12]). Moreover, the Increase or decrease entry in data set [1] (after 6 hours vs 15 minutes) is recorded as “Increase”; in data set [2] (freezing and thawing 6 times vs 2 times), “Decrease”; in data set [3], “Decrease”; in [4], “Decrease”; in data set [5] it was “Decrease”. Also, the “Time when compound is affected” value in [3] is given as “After 4 hours”; in data set [4], “After 1 hour hours”. Besides, the “Number of times” value in [5] came out at 6 times.
With `O=C(O)CC(O)C(=O)O` (centres unmarked) [Malic acid], the “Rate of increase or decrease” value was determined as 1.36 in data set [10] (detection intensity relative to 1 at 15 minutes, after 12 hours); 0.58 in data set [1] (after 6 hours); 2.37 in data set [2] (freezing and thawing 4 times); 1.33 in data set [3] (setting [13]); 1.38 in data set [4]; 0.64 in data set [5] (10 times of freezing and thawing, detection intensity relative to 1 at 2 times). In addition, the Increase or decrease entry was “Increase” in data set [10] (detection intensity, after 12 hours vs 15 minutes); “Decrease” in data set [1] (after 6 hours vs 15 minutes); “Increase” in data set [2] (setting [11]); “Increase” in data set [3]; “Increase” in [4]; “Decrease” in [5]. Moreover, the “Time when compound is affected” value in [3] was “After 4 hours”; in data set [4], “After 1 hour hours”. In addition, the “Number of times” value in data set [5] was 10 times.
